Results from publication PMC3984256, “A PCNA-Derived Cell Permeable Peptide Selectively Inhibits Neuroblastoma Cell Growth” (PLoS ONE, 2014).
Entries after “also recorded” stand apart in the source; their conditions may differ. Where a SMILES comes first, the peptide text is derived from it. [ ]: non-standard residue; d: D form.

What was measured:
[1] = system: SSA-mediated DSB repair, U2OS-derived SA-GFP cells; assay: DSB repair reporter assay, SSA (SA-GFP); format: cell-based; conditions: 30 µM, GFP-positive cells 3 d after I-SceI transfection, normalized to R9-srbPep, triplicates
Procedure: (§1) The plasmid pCBASce expresses the rare cutting I-SceI meganuclease. The U2OS-derived cell lines, DR-GFP, EJ5-GFP, and SA-GFP contain a stably transfected reporter gene for DSB repair mediated by HR, end joining (EJ), and single-strand annealing (SSA), respectively. These cell lines were cultured in DMEM medium with 10% FBS at 37°C in the presence of 5% CO2.
(§2) DR-GFP, EJ5-GFP, and SA-GFP cell lines were seeded at 2.5×10^4 cells/cm^2 in a 12-well plate. Once attached overnight, cells were transfected with 1.2 µg of the pCBASce I-SceI expression plasmid mixed with 3.6 µl of Lipofectamine 2000 (Invitrogen) in 200 µl of Optimem media (Invitrogen). After incubation for 3 h, the media containing transfection complexes was aspirated and replaced with fresh media containing 30 µM of the peptides. The HR, EJ, and SSA-mediated DSB repair, indicated by the restoration of a functional GFP gene in the respective cell lines, were quantified by measuring the relative abundance of GFP-positive cells by flow cytometry 3 d after transfection.

[2] = system: EJ-mediated DSB repair, U2OS-derived EJ5-GFP cells; assay: DSB repair reporter assay, EJ (EJ5-GFP); format: cell-based; conditions: 30 µM, GFP-positive cells 3 d after I-SceI transfection, normalized to R9-srbPep, triplicates
Procedure: as §1, §2

[3] = system: SV40 T-antigen-dependent DNA replication, nuclear extracts from SK-N-BE(2)c cells; assay: SV40 T-antigen-dependent DNA replication assay in vitro; format: biochemical; conditions: nuclear extracts incubated with peptide 20 min; 32P dCTP incorporation, normalized to PBS, triplicates
Procedure: The assay was performed essentially as described, except that nuclear extracts from SK-N-BE(2)c cells were used in the assay.
Figure 3 Inhibition of DNA replication and induction of S-phase arrest and apoptosis by R9-caPep. a) SK-N-BE(2)c cells were pulsed in 10 µM of BrdU for 30 min after being pre-treated with R9-caPep or R9-srbPep for 7.5 h. The relative abundances of BrdU-positive cells in triplicates were averaged and graphed plus/minus standard deviations. b) Nuclear extracts from SK-N-BE(2)c cells were incubated with the indicated concentrations of R9-caPep (grey bars) or R9-srbPep (black bars) for 20 min. SV40 T-antigen was then added to the nuclear extracts along with premixed reaction buffer containing ^32P dCTP. […] The polymerized radioactivity was measured by a scintillation counter. The T-antigen-dependent incorporation of ^32P dCTP was calculated by subtracting T-antigen-independent radioactivity from the total radioactivity and was normalized to the T-antigen-dependent radioactivity in PBS-treated samples. Triplicates of normalized T-antigen-dependent radioactivity for each treatment condition were averaged and graphed plus/minus standard deviations. c) SK-N-BE(2)c and non-malignant 7SM0032 cells were fixed and stained with propidium iodide (PI) after being treated with the indicated concentrations of R9-caPeptide for 48 h. […] Cells were fixed and analyzed by a TUNEL assay. […]

CC[C@H](C)[C@H](NC(=O)CNC(=O)[C@H](CC(C)C)NC(=O)[C@H](CS)NC(=O)[C@H](CS)NC(=O)[C@@H](CCCNC(=N)N)NC(=O)[C@@H](CCCNC(=N)N)NC(=O)[C@@H](CCCNC(=N)N)NC(=O)[C@@H](CCCNC(=N)N)NC(=O)[C@@H](CCCNC(=N)N)NC(=O)[C@@H](CCCNC(=N)N)NC(=O)[C@@H](CCCNC(=N)N)NC(=O)[C@@H](CCCNC(=N)N)NC(=O)[C@H](N)CCCNC(=N)N)C(=O)N1CCC[C@H]1C(=O)N[C@@H](CCC(=O)O)C(=O)N[C@@H](CCC(N)=O)C(=O)N[C@@H](CCC(=O)O)C(=O)N[C@@H](Cc1ccc(O)cc1)C(=O)O [R9-caPep] (H-[dR][dR][dR][dR][dR][dR][dR][dR][dR]CCLGIPEQEY-OH; N-terminus and C-terminus assumed)
SSA-mediated DNA repair [1]: only small effects on EJ or SSA; also recorded: slightly enhances DNA repair through SSA | EJ-mediated DNA repair [2]: only small effects on EJ or SSA; also recorded: little effect on the EJ pathway | SV40 T-antigen-dependent DNA replication [3]: inhibited SV40 T-antigen-dependent DNA replication in vitro
